Assay results: patent US9914727B2, “Factor IXa inhibitors” (Merck Sharp & Dohme Corp., priority 2012, dated 2018)

Molecular target: Factor IXa (Homo sapiens, UniProt P00740)
Experiment: Determination of inhibitory activity against Factor IXa (FIXa Low Enzyme; cleavage of fluorescent peptide CH3SO2-D-CHG-Gly-Arg-AFC)
Format: biochemical
Details: fluorogenic peptide substrate CH3SO2-D-CHG-Gly-Arg-AFC.AcOH; excitation 405, emission 510
Description: Determination of Inhibitory Activity Against Factor IXa
Formation of a clot to stem bleeding at a site of blood vessel injury involves the coordinated activity of a group of plasma proteins that initiate and propagate fibrin formation and subsequently protect fibrin from premature degradation. Factor IX is a key component of the plasma system that forms a fibrin clot at a site of vascular injury. The activity of Factor IXa is measured by monitoring the cleavage of the fluorescent peptide, CH3SO2-D-CHG-Gly-Arg-AFC.AcOH (“CHG” is cyclohexyl-glycine and “AFC” is trifluoro aminomethyl coumarin). Factor IXa cleaves the […] bond between Arg and AFC, thereby releasing the AFC fluorophore. The free AFC can be detected with a fluorescence detector at an excitation wavelength of 405 nm and emission wavelength of 510 nm.

Factor IXa, sequence (P00740 227-461 limits assumed): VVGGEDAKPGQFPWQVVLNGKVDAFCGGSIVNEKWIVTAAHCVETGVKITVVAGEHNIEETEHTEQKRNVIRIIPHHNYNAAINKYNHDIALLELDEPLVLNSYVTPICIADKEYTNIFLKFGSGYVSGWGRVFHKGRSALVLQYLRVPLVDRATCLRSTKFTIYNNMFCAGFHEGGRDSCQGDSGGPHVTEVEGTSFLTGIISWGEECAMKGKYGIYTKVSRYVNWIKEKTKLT
Factor IXa, sequence (P00740 47-191 partner limits assumed): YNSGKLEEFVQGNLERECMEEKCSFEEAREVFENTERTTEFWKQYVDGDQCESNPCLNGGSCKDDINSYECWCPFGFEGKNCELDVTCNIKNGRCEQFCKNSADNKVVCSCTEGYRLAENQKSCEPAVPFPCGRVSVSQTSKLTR

In order of falling “FIXa Low Enzyme” value:
1. C[C@](O)(c1nc(=O)c2c(ccc3c(N)nsc32)[nH]1)[C@H]1OCCN(c2cccc(C(F)(F)F)n2)C1=O [Example 3, (R)-2-((S)-1-(3-Amino-9-oxo-6,9-dihydroisothiazolo[5,4-f]quinazolin-7-yl)-1-hydroxyethyl)-4-(6-(trifluoromethyl)pyridin-2-yl)morpholin-3-one]  577.9 nM
2. CC(C)(O)c1cccc(N2CCO[C@](C)([C@@H](O)c3nc(=O)c4c(ccc5c(N)nsc54)[nH]3)C2=O)n1 [Example 4, (R)-2-((S)-(3-Amino-9-oxo-6,9-dihydroisothiazolo[5,4-f]quinazolin-7-yl)(hydroxy)methyl)-4-(6-(2-hydroxypropan-2-yl)pyridin-2-yl)-2-methylmorpholin-3-one]  352.7 nM
3. C[C@]1([C@@H](O)c2nc(=O)c3c(ccc4c(N)nsc43)[nH]2)OCCN(c2ccn(-c3ccc(=O)n(C(F)F)c3)n2)C1=O [Example 1, (R)-2-((S)-(3-Amino-9-oxo-6,9-dihydroisothiazolo[5,4-f]quinazolin-7-yl)(hydroxy)methyl)-4-(1-(1-(difluoromethyl)-6-oxo-1,6-dihydropyridin-3-yl)-1H-pyrazol-3-yl)-2-methylmorpholin-3-one]  102.1 nM
4. C[C@]1([C@@H](O)c2nc(=O)c3c(ccc4c(N)nsc43)[nH]2)OCCN(c2ccn(-c3ccnnc3)n2)C1=O [Example 2, (R)-2-((S)-(3-Amino-9-oxo-6,9-dihydroisothiazolo[5,4-f]quinazolin-7-yl)(hydroxy)methyl)-2-methyl-4-(1-(pyridazin-4-yl)-1H-pyrazol-3-yl)morpholin-3-one]  8.597 nM
